# Data: patent publication US10343988B1, “Hydroxytyrosol thiodipropionic acid ester with antioxidant activity and a method of preparing the same” (SHAANXI UNIVERSITY OF SCIENCE AND TECHNOLOGY, priority 2019, dated 2019)
# Entries after “also recorded” stand apart in the source; their conditions may differ.
# Test: DPPH radical scavenging activity assay
# Type: biochemical
# Conditions: for Scavenging Activity (%) (n = 3): DPPH in methanol, 30 min, 517 nm
# From the text: DPPH Radical Scavenging Activity Assay
# 2,2-Diphenyl-1-picryl hydrazyl (DPPH) is an organic compound composed of a stable organic radical. In the DPPH molecule, due to the presence of multiple electron-withdrawing —NO2 and large it bonds of the benzene ring, nitrogen free radical is stabilized. Its methanol solution is purple and has a maximum absorption peak at 517 nm. After the addition of an antioxidant, DPPH captures an electron to be paired with the free electron, and the purple fades and turns into a yellow substance. The absorption at 517 nm disappears, and the degree of fading is quantitatively related to the number of electrons it captures. Based on this principle, a spectrophotometer is used to detect the change of the absorbance of the DPPH radical and the sample solution, and the ability of the sample to provide hydrogen atoms and scavenge free radicals can be measured.
# (a) Preparation of DPPH solution:measuring exact amount of 2,2-diphenyl-1-picryl hydrazyl (DPPH) and dissolving in methanol to prepare a 0.2×10^−4 mol/L DPPH solution, stored at 0° C. in dark.
# (b) Preparation of sample solutions: Vc (vitamin C, positive control), hydroxytyrosol thiodipropionic acid ester, hydroxytyrosol (control), thiodipropionic acid (control), and a mixture of hydroxytyrosol and thiodipropionic acid (control) were dissolved in methanol and diluted in a concentration gradient.
# Measuring the scavenging activity of the sample solutions: 2 mL of the sample solutions (table 1) at each concentration gradient was taken, 2 mL 0.2×10^−4 mol/L DPPH solution was added, the mixture was mixed and reacted at room temperature in dark for 30 minutes, and methanol was then added to adjust final volume. The absorbance Ai was measured at 517 nm. 2 mL control solution and 2 mL methanol were mixed, and the absorbance Aj was measured. 2 mL DPPH solution and 2 mL methanol were mixed, and the absorbance A0 was measured.
# (d) The scavenging activity of the sample solution and control solutions is calculated according to the following calculation formula and shown in Table 3 and FIG. 3. Scavenging activity (%)=100×[1−(Ai−Aj)/A0]
# [1] = sample concentration 1.648 μg/mL, room temperature, dark
# [2] = sample concentration 8.242 μg/mL
# [3] = sample concentration 16.484 μg/mL
# [4] = sample concentration 37.969 μg/mL
# [5] = sample concentration 65.938 μg/mL
# [6] = sample concentration 131.875 μg/mL
# [7] = sample concentration 263.750 μg/mL
# [8] = sample concentration 527.500 μg/mL
# [9] = sample concentration 1055.000 μg/mL
SMILES,"DPPH radical scavenging activity (result in words, comparison with controls) (1.648 to 1055 μg/mL, compared at same concentration)",Scavenging Activity (%) (n = 3) [1],Scavenging Activity (%) (n = 3) [2],Scavenging Activity (%) (n = 3) [3],Scavenging Activity (%) (n = 3) [4],Scavenging Activity (%) (n = 3) [5],Scavenging Activity (%) (n = 3) [6],Scavenging Activity (%) (n = 3) [7],Scavenging Activity (%) (n = 3) [8],Scavenging Activity (%) (n = 3) [9]
"O=C(CCSCCC(=O)OCCc1ccc(O)c(O)c1)OCCc1ccc(O)c(O)c1 [A, bis(3,4-dihydroxyphenethyl) 3,3′-thiodipropanoate]","obvious DPPH radical scavenging activity in a concentration dependent manner; also recorded: better DPPH radical scavenging activity than hydroxytyrosol (B), thiodipropionic acid (C), and a 2:1 physical mixture of hydroxytyrosol and thiodipropionic acid (D) at same concentration",32.44,42.37,52.29,66.79,79.39,90.01,96.95,97.71,98.09
"OCCc1ccc(O)c(O)c1 [B, 4-(2-hydroxyethyl)-1,2-benzenediol]",–,8.44,10.97,22.78,29.96,43.04,62.87,73.00,75.11,75.95
"O=C(O)CCSCCC(=O)O [C, 3,3′-thiodipropionic acid]",–,3.24,4.86,9.72,16.19,20.65,27.13,31.58,32.39,38.06
"O=C1O[C@H]([C@@H](O)CO)C(O)=C1O [Vc, Vitamin C]",–,34.01,37.06,44.67,67.51,95.43,97.46,98.98,99.49,99.49
